Assays:
[1] = biological target: T1, 5-hydroxytryptamine receptor 1A (Rattus norvegicus, UniProt P19327); test: Tested in vitro for receptor binding affinity against 5-hydroxytryptamine 1A receptor using radioligand [3H]8-OH-DPAT
T1 sequence (P19327 whole entry): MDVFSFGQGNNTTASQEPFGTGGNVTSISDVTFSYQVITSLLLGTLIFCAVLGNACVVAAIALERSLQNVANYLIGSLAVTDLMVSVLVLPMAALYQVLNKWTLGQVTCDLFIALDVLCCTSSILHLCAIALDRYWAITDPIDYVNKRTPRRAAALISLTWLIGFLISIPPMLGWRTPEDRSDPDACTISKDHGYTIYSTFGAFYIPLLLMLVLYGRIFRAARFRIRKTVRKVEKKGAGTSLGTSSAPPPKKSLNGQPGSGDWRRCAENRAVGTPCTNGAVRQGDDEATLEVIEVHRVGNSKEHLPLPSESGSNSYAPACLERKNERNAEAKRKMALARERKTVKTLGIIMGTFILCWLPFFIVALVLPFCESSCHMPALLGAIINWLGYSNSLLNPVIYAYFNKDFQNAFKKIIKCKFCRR

[2] = system: Mus musculus; test: Effect on body temperature in mice at intraperitoneal dosage of 2 mg/kg, (compound administered 30 min before the test) after 45 min; assay type: functional
[3] = system: Mus musculus; test: Effect on 8-OH-DPAT-induced hypothermia in mice (5 mg/kg) at intraperitoneal dosage of 4 mg/kg of compound after 45 mins; assay type: functional
[4] = system: Mus musculus; test: Effect on 8-OH-DPAT-induced hypothermia in mice (5 mg/kg) at intraperitoneal dosage of 4 mg/kg of compound after 60 mins; assay type: functional
[5] = system: Mus musculus; test: Effect on 8-OH-DPAT-induced hypothermia in mice (5 mg/kg) at intraperitoneal dosage of 8 mg/kg of compound after 15 mins; assay type: functional
[6] = system: Mus musculus; test: Effect on 8-OH-DPAT-induced hypothermia in mice (5 mg/kg) at intraperitoneal dosage of 8 mg/kg of compound after 30 mins; assay type: functional
[7] = system: Mus musculus; test: Effect on 8-OH-DPAT-induced hypothermia in mice (5 mg/kg) at intraperitoneal dosage of 8 mg/kg of compound after 60 mins; assay type: functional
[8] = system: Mus musculus; test: Effect on body temperature in mice at intraperitoneal dosage of 1 mg/kg, (compound administered 30 min before the test) after 30 min; assay type: functional
[9] = system: Mus musculus; test: Effect on body temperature in mice at intraperitoneal dosage of 1 mg/kg, (compound administered 30 min before the test) after 45 min; assay type: functional
[10] = system: Mus musculus; test: Effect on body temperature in mice at intraperitoneal dosage of 1 mg/kg, (compound administered 30 min before the test) after 75 min; assay type: functional
[11] = system: Mus musculus; test: Effect on body temperature in mice at intraperitoneal dosage of 1 mg/kg, (compound administered 30 min before the test) after 90 min; assay type: functional
[12] = system: Mus musculus; test: Effect on 8-OH-DPAT-induced hypothermia in mice (5 mg/kg) at intraperitoneal dosage of 1 mg/kg of compound after 15 mins; assay type: functional
[13] = system: Mus musculus; test: Effect on 8-OH-DPAT-induced hypothermia in mice (5 mg/kg) at intraperitoneal dosage of 1 mg/kg of compound after 30 mins; assay type: functional
[14] = system: Mus musculus; test: Effect on body temperature in mice at intraperitoneal dosage of 8 mg/kg, (compound administered 30 min before the test) after 75 min; assay type: functional
[15] = system: Mus musculus; test: Effect on body temperature in mice at intraperitoneal dosage of 8 mg/kg, (compound administered 30 min before the test) after 90 min; assay type: functional
[16] = system: Mus musculus; test: Effect on 8-OH-DPAT-induced hypothermia in mice (5 mg/kg) at intraperitoneal dosage of 2 mg/kg of compound after 15 mins; assay type: functional
[17] = system: Mus musculus; test: Effect on 8-OH-DPAT-induced hypothermia in mice (5 mg/kg) at intraperitoneal dosage of 2 mg/kg of compound after 30 mins; assay type: functional
[18] = system: Mus musculus; test: Effect on 8-OH-DPAT-induced hypothermia in mice (5 mg/kg) at intraperitoneal dosage of 2 mg/kg of compound after 45 mins; assay type: functional
[19] = system: Mus musculus; test: Effect on 8-OH-DPAT-induced hypothermia in mice (5 mg/kg) at intraperitoneal dosage of 2 mg/kg of compound after 60 mins; assay type: functional
[20] = system: Mus musculus; test: Effect on 8-OH-DPAT-induced hypothermia in mice (5 mg/kg) at intraperitoneal dosage of 4 mg/kg of compound after 15 mins; assay type: functional
[21] = system: Mus musculus; test: Effect on 8-OH-DPAT-induced hypothermia in mice (5 mg/kg) at intraperitoneal dosage of 4 mg/kg of compound after 30 mins; assay type: functional
[22] = system: Mus musculus; test: Effect on body temperature in mice at intraperitoneal dosage of 2 mg/kg, (compound administered 30 min before the test) after 90 min; assay type: functional
[23] = system: Mus musculus; test: Effect on body temperature in mice at intraperitoneal dosage of 4 mg/kg, (compound administered 30 min before the test) after 60 min; assay type: functional
[24] = system: Mus musculus; test: Effect on body temperature in mice at intraperitoneal dosage of 4 mg/kg, (compound administered 30 min before the test) after 75 min; assay type: functional
[25] = system: Mus musculus; test: Effect on body temperature in mice at intraperitoneal dosage of 4 mg/kg, (compound administered 30 min before the test) after 90 min; assay type: functional
[26] = system: Mus musculus; test: Effect on body temperature in mice at intraperitoneal dosage of 4 mg/kg, (compound administered 30 min before the test) after 30 min; assay type: functional
[27] = system: Mus musculus; test: Effect on body temperature in mice at intraperitoneal dosage of 8 mg/kg, (compound administered 30 min before the test) after 30 min; assay type: functional
[28] = system: Mus musculus; test: Effect on body temperature in mice at intraperitoneal dosage of 8 mg/kg, (compound administered 30 min before the test) after 45 min; assay type: functional
[29] = system: Mus musculus; test: Effect on body temperature in mice at intraperitoneal dosage of 8 mg/kg, (compound administered 30 min before the test) after 60 min; assay type: functional
[30] = system: Rattus norvegicus; test: Tested for the effect on 8-OH-DPAT-induced behavior in reserpine pretreated rat against flat body posture at dosage of 2 mg/kg; assay type: functional
[31] = system: Rattus norvegicus; test: Tested for the effect on 8-OH-DPAT-induced behavior in reserpine pretreated rat against flat body posture at dosage of 8 mg/kg; assay type: functional
[32] = system: Rattus norvegicus; test: Tested for the effect on 8-OH-DPAT-induced behavior in reserpine pretreated rat against forepaw treading at dosage of 16 mg/kg; assay type: functional
[33] = system: Rattus norvegicus; test: Tested for the effect on 8-OH-DPAT-induced behavior in reserpine pretreated rat against forepaw treading at dosage of 2 mg/kg; assay type: functional
[34] = system: Rattus norvegicus; test: Tested for the effect on 8-OH-DPAT-induced behavior in reserpine pretreated rat against forepaw treading at dosage of 8 mg/kg; assay type: functional
[35] = system: Rattus norvegicus; test: Tested for the effect on 8-OH-DPAT-induced lower lip retraction (LLR) in rat at dosage of 2 mg/kg; assay type: functional
[36] = system: Rattus norvegicus; test: Tested for the effect on 8-OH-DPAT-induced lower lip retraction (LLR) in rat at dosage of 4 mg/kg; assay type: functional
[37] = system: Rattus norvegicus; test: Tested for the induction of lower lip retraction (LLR) by the investigated compounds in rat at dosage of 4 mg/kg; assay type: functional
[38] = system: Mus musculus; test: Effect on 8-OH-DPAT-induced hypothermia in mice (5 mg/kg) at intraperitoneal dosage of 1 mg/kg of compound after 60 mins; assay type: functional

## COc1ccccc1N1CCN(CCCn2nnc3ccccc32)CC1
[1]
  Ki: 15 nM
[2]
  Delta t: 0.1 °C
[3]
  Delta t: 0 °C
[4]
  Delta t: 0.1 °C
[5]
  Delta t: 0.3 °C
[6]
  Delta t: 0.4 °C
[7]
  Delta t: 0.6 °C
[8]
  Delta t: 0 °C
[9]
  Delta t: 0.1 °C
[10]
  Delta t: 0 °C
[11]
  Delta t: 0.1 °C
[12]
  Delta t: 1.5 °C
[13]
  Delta t: 1.1 °C
[14]
  Delta t: 0.2 °C
[15]
  Delta t: 0.2 °C
[16]
  Delta t: 0.4 °C
[17]
  Delta t: 0.2 °C
[18]
  Delta t: 0.1 °C
[19]
  Delta t: 0.1 °C
[20]
  Delta t: 0.3 °C
[21]
  Delta t: 0.1 °C
[22]
  Delta t: 0.1 °C
[23]
  Delta t: 0.1 °C
[24]
  Delta t: 0 °C
[25]
  Delta t: 0.2 °C
[26]
  Delta t: 0.4 °C
[27]
  Delta t: 0.4 °C
[28]
  Delta t: 0.2 °C
[29]
  Delta t: 0.1 °C
[30]
  Behavioral score: 14.8
[31]
  Behavioral score: 8
[32]
  Behavioral score: 2.6
[33]
  Behavioral score: 13.4
[34]
  Behavioral score: 3.7
[35]
  LLR score: 2.3
[36]
  LLR score: 1.1
[37]
  LLR score: 0
[38]
  Delta t: 0.3 °C
